Values of other authors in patent publication US11793769B2, “Device with compositions for delivery to the lungs, the oral mucosa and the brain” (priority 2014, dated 2023).

Experiments:
[1] = target: cannabinoid type II receptor (CB2) (Homo sapiens, UniProt P34972); settings: compared with CB1
[2] = system: paclitaxel-induced neuropathic pain; settings: without affecting the efficacy of the chemotherapy
[3] = system: animal models of anxiety and depression; settings: in vivo

Chain of cannabinoid type II receptor (CB2) (P34972 whole entry, species assumed): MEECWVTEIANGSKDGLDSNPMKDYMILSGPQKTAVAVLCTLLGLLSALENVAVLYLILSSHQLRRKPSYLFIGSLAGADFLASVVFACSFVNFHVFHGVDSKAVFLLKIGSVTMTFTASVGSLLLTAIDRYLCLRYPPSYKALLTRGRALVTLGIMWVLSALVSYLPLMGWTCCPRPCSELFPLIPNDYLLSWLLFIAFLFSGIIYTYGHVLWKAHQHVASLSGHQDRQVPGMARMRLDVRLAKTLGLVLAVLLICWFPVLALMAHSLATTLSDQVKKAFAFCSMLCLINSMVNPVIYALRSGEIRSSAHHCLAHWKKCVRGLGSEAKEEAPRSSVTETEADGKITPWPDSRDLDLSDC

C=C(C)[C@@H]1CCC(C)=C[C@H]1c1c(O)cc(CCCCC)cc1O [CBD, cannabidiol]
affinity to CB2 [1]: higher affinity | effect on paclitaxel-induced neuropathic pain [2]: inhibits paclitaxel-induced neuropathic pain | effects in animal models of anxiety and depression [3]: both anti-anxiety and antidepressant effects
